For one data set, the target named is T1, NMDA receptors of rat cortical neurons (Rattus norvegicus, UniProt Q00960).
T1 construct: primary neocortical cell cultures derived from 17 day old Charles River rat embryos; endogenous in cells; host or cells: primary rat embryonic (E17) neocortical cell culture, 3-7 days in vitro
T1 sequence (Q00960 27-1482, other chains not shown): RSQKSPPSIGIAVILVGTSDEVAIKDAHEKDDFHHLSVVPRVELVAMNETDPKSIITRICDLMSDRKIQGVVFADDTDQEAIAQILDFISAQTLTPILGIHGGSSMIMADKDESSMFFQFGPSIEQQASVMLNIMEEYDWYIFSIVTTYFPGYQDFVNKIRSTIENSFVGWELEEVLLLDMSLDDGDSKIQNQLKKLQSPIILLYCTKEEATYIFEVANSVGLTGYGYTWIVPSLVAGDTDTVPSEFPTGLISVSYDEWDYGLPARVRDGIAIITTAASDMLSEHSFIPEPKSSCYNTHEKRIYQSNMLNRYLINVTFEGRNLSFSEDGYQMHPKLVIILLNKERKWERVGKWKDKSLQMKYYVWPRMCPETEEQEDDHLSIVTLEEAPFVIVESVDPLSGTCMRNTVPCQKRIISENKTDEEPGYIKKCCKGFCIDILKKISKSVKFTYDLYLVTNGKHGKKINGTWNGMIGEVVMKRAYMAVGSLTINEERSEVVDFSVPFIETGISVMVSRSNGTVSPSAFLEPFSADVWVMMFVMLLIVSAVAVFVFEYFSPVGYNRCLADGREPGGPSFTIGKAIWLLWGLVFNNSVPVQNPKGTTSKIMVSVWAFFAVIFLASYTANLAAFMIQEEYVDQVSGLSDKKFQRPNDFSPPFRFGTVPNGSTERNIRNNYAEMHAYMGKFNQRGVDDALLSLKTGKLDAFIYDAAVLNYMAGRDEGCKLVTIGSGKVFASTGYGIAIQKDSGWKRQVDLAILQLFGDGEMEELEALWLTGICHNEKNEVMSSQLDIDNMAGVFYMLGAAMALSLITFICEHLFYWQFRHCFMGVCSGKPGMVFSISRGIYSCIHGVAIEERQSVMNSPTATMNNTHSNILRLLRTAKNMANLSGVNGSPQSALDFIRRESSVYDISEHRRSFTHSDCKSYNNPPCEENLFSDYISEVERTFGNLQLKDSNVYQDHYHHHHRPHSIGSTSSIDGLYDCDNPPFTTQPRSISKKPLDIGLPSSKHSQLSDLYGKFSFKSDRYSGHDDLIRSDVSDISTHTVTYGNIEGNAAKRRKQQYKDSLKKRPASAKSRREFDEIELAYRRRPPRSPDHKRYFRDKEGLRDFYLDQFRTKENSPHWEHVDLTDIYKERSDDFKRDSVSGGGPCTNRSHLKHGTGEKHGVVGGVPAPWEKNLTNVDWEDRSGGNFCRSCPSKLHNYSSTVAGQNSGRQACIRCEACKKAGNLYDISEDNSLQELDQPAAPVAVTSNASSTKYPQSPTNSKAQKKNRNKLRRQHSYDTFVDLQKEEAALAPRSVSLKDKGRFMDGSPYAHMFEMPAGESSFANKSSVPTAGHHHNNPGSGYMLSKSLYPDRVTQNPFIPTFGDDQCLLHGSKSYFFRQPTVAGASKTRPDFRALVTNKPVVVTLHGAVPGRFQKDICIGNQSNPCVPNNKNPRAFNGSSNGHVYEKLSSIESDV
In words: NMDA antagonist potency by intracellular calcium measurement (plate reader fluorimeter) in rat cortical cell culture. Format: cell-based.
Settings: not given
As to the method:
Assessment of NMDA Antagonist Potency In Vitro by Measurement of Intracellular Calcium Concentration with a Plate Reader Fluorimeter in Rat Cortical Cell Culture
The intracellular calcium measurements were carried out on primary neocortical cell cultures derived from 17 day old Charles River rat embryos (for the details on the preparation of neocortical cell culture see Johnson, M. I.; Bunge, R. P. (1992): Primary cell cultures of peripheral and central neurons and glia. In: Protocols for Neural Cell Culture, eds: Fedoroff, S.; Richardson A., The Humana Press Inc., 51-75.) After isolation the cells were plated onto standard 96-well microplates and the cultures were maintained in an atmosphere of 95% air-5% CO2 at 37° C. until the calcium measurements.
The cultures were used for the intracellular calcium measurements after 3-7 days in vitro. Before the measurement the cells were loaded with a fluorescent Ca^2+-sensitive dye, Fluo-4/AM (2 μM). To stop the loading the cells were washed twice with the solution used for the measurement (140 mM NaCl, 5 mM KCl, 2 mM CaCl2, 5 mM HEPES, 5 mM HEPES-Na, 20 mM glucose, 10 μM glycine, pH=7.4). After washing the test compounds were added to the cells in the above solution (90 μl/well). Intracellular calcium measurements were carried out with a plate reader fluorimeter: elevation of Fluo-4-fluorescence and so, intracellular calcium was induced by application of 40 μM NMDA. Inhibitory potency of the test compounds was assessed by measuring the reduction in the calcium elevation in the presence of different concentrations of the compounds.
(§1) Dose-response curves and IC50 values were calculated by using data derived from at least three independent experiments. Inhibitory potency of a compound at a single concentration point was expressed as percent inhibition of the NMDA response. Sigmoidal concentration-inhibition curves were fit to the data and IC50 values were determined as the concentration that produces half of the maximal inhibition caused by the compound.
In the case of `CC(CN1CCC(Cc2ccccc2)CC1)C(O)c1ccc(O)cc1` (stereo not drawn) [Ro 25.6981, R-(R*,S*)-1-(4-hydroxyphenyl)-2-methyl-3-[4-(phenylmethyl)piperidin-1-yl]-1-propanol, reference compound], the IC50 (in general, the concentration needed to halve the response being measured) came out at 159 nM.

The data set is the same for the next values; noted with them: rat cortical cells, 40 μM NMDA, fluorimetric method; read-out: Cortical cells IC50.
Turning to `CCOc1ccccc1CNC(=N)c1cc2cc(OC)ccc2[nH]1` [Compound 131], the IC50 turned out to be 57 nM.
On the same count and under the same terms, for `COc1ccc(OC)c(CNC(=N)c2cc3ccccc3[nH]2)c1` [Compound 35] the value was 341 nM; for `N=C(NCc1cc(F)cc(F)c1)c1cc2cc(Cl)ccc2[nH]1` [Compound 110], 702 nM; for `N=C(NCc1cc(F)ccc1F)c1cc2cc(F)ccc2[nH]1` [Compound 67], 359 nM.
On the same count and under the same terms, next, `COc1ccc2[nH]c(C(=N)NCc3c(F)cccc3F)cc2c1` [Compound 143]: 158 nM; `COc1ccc2[nH]c(C(=N)NCc3ccccc3)cc2c1` [Compound 118]: 224 nM.
Turning to `N=C(NCc1cccnc1)c1cc2cc(Cl)ccc2[nH]1` [Compound 97], the IC50 was 125 nM.
The same measure, in the same setting: for `COc1cccc(OC)c1C/N=C(\N)c1cc2cc(Cl)ccc2[nH]1` [Compound 112] the value was 69 nM.
Still for that read-out and setting: next, `N=C(NCc1cccc(F)c1)c1cc2cc(Cl)ccc2[nH]1` [Compound 81]: 432 nM; `N=C(NCc1ccccc1Cl)c1cc2cc(Cl)ccc2[nH]1` [Compound 87]: 422 nM; `COc1cccc(OC)c1C/N=C(\N)c1cc2cc(F)ccc2[nH]1` [Compound 72]: 17 nM.
The same measure, in the same setting: for `COc1cccc(OC)c1CNC(=N)c1cc2ccccc2[nH]1` [Compound 36] the value was 5.4 nM.
On to `COc1ccc2[nH]c(C(=N)NCc3cccc(Br)c3)cc2c1` [Compound 139], for which the IC50 was found to be 397 nM.
The same measure, in the same setting: next, `N=C(NCc1c(F)cccc1F)c1cc2ccccc2[nH]1` [Compound 31]: 143 nM; `CCOc1ccccc1CNC(=N)c1cc2cc(Cl)ccc2[nH]1` [Compound 94]: 213 nM.
The same measure, in the same setting: for `COc1cccc(CNC(=N)c2cc3cc(OC)ccc3[nH]2)c1` [Compound 129] the value was 52 nM.
Consider `COc1ccc2[nH]c(C(=N)NCc3ccccc3C(F)(F)F)cc2c1` [Compound 119], for which the IC50 amounted to 401 nM.
On the same count and under the same terms, next, `N=C(NCc1cc(Cl)cc(Cl)c1)c1cc2cc(F)ccc2[nH]1` [Compound 73]: 209 nM; `N=C(NCc1ccccc1F)c1cc2cc(Cl)ccc2[nH]1` [Compound 107]: 493 nM; `Cc1ccccc1C/N=C(\N)c1cc2ccccc2[nH]1` [Compound 32]: 170 nM.
Still for that read-out and setting: for `COc1ccc2[nH]c(C(=N)NCc3cccc(C)c3)cc2c1` [Compound 128] the value was 220 nM.
Still for that read-out and setting: next, `COc1ccc(OC)c(CNC(=N)c2cc3cc(Cl)ccc3[nH]2)c1` [Compound 111]: 417 nM; `COc1ccc(OC)c(CNC(=N)c2cc3cc(F)ccc3[nH]2)c1` [Compound 71]: 453 nM.
Turning to `N=C(NCc1ccccc1OC(F)(F)F)c1cc2cc(Cl)ccc2[nH]1` [Compound 106], the concentration for half-maximal inhibition (IC50) amounted to 198 nM.
Still for that read-out and setting: next, `COc1ccc2[nH]c(C(=N)NCc3c(OC)cccc3OC)cc2c1` [Compound 147]: 26 nM; `N=C(NCc1cc(F)ccc1F)c1cc2ccccc2[nH]1` [Compound 30]: 224 nM.
Still for that read-out and setting: for `O=C(CCN1CCC(Cc2ccc(F)cc2)CC1)c1ccc2[nH]c(=O)oc2c1` [EMD 95885, reference compound] the value was 35 nM; for `COc1ccc2[nH]c(C(=N)NCc3cc(F)ccc3F)cc2c1` [Compound 142], 202 nM.
For `COc1cccc(CNC(=N)c2cc3cc(F)ccc3[nH]2)c1` [Compound 57], the IC50 was 211 nM.
Still for that read-out and setting: for `CCOc1ccccc1CNC(=N)c1cc2cc(F)ccc2[nH]1` [Compound 59] the value was 51 nM; for `N=C(NCc1cccc(Br)c1)c1cc2cc(Cl)ccc2[nH]1` [Compound 103], 257 nM.
The same measure, in the same setting: for `COc1ccc(CNC(=N)c2cc3cc(Cl)ccc3[nH]2)c(OC)c1` [Compound 83] the value was 369 nM; for `Cc1ccccc1CNC(=N)c1cc2cc(F)ccc2[nH]1` [Compound 68], 160 nM.
On the same count and under the same terms, for `O=c1[nH]c2ccc([S+]([O-])CCN3CCC(Cc4ccc(F)cc4)CC3)cc2o1` (stereo not shown) [CI-1041, 6-{2-[4-(4-fluoro-benzyl)-piperidin-1-yl]-ethanesulfinyl}-3H-benzooxazol-2-one, reference compound] the value was 6.6 nM.
In the case of `CCOc1ccccc1CNC(=N)c1cc2ccccc2[nH]1` [Compound 19], the IC50 came to 75 nM.
The same measure, in the same setting: for `N=C(NCc1c(F)cccc1F)c1cc2cc(Cl)ccc2[nH]1` [Compound 108] the value was 742 nM; for `COc1ccc2[nH]c(C(=N)NCc3ccc(OC)c(OC)c3)cc2c1` [Compound 126], 519 nM; for `COc1ccc(OC)c(CNC(=N)c2cc3cc(OC)ccc3[nH]2)c1` [Compound 146], 287 nM.
Still for that read-out and setting: next, `COc1ccc2[nH]c(C(=N)NCc3ccccc3Br)cc2c1` [Compound 138]: 232 nM; `N=C(NCc1ccccc1F)c1cc2ccccc2[nH]1` [Compound 29]: 232 nM.
Same read-out and setting: next, `COc1ccc(CNC(=N)c2cc3cc(OC)ccc3[nH]2)c(OC)c1` [Compound 123]: 129 nM; `COc1ccc2[nH]c(C(=N)NCc3cc(F)cc(F)c3)cc2c1` [Compound 145]: 318 nM.
Turning to `N=C(NCc1cc(Cl)cc(Cl)c1)c1cc2ccccc2[nH]1` [Compound 38], the IC50 was determined as 159 nM.
The same measure, in the same setting: for `N=C(NCc1cccc(Br)c1)c1cc2ccccc2[nH]1` [Compound 26] the value was 418 nM.
As for `COc1cccc(CNC(=N)c2cc3cc(Cl)ccc3[nH]2)c1` [Compound 92], the half-inhibitory concentration (IC50) amounted to 319 nM.
On the same count and under the same terms, next, `COc1ccc2[nH]c(C(=N)NCc3cccnc3)cc2c1` [Compound 134]: 100 nM; `COc1ccc2[nH]c(C(=N)NCc3cccc(Cl)c3)cc2c1` [Compound 127]: 373 nM; `N=C(NCc1cc(F)cc(F)c1)c1cc2cc(F)ccc2[nH]1` [Compound 70]: 594 nM.
The same measure, in the same setting: next, `N=C(NCc1ccccc1Br)c1cc2ccccc2[nH]1` [Compound 25]: 277 nM; `Cc1ccccc1CNC(=N)c1cc2cc(Cl)ccc2[nH]1` [Compound 109]: 218 nM; `Cc1ccc(CC2(O)CCN(CCOc3ccc(O)cc3)CC2)cc1` [Co-101244, 1-[2-(4-hydroxyphenoxy)ethyl]-4-hydroxy-4-(4-methylbenzyl)piperidine, reference compound]: 23 nM.

In another data set the target is T2, recombinant NMDA receptors NR1(−3)/NR2A (Homo sapiens, UniProt Q05586+Q12879).
T2 construct: expressed in transfected cells
T2 sequence (Q12879 23-1464, other chains not shown): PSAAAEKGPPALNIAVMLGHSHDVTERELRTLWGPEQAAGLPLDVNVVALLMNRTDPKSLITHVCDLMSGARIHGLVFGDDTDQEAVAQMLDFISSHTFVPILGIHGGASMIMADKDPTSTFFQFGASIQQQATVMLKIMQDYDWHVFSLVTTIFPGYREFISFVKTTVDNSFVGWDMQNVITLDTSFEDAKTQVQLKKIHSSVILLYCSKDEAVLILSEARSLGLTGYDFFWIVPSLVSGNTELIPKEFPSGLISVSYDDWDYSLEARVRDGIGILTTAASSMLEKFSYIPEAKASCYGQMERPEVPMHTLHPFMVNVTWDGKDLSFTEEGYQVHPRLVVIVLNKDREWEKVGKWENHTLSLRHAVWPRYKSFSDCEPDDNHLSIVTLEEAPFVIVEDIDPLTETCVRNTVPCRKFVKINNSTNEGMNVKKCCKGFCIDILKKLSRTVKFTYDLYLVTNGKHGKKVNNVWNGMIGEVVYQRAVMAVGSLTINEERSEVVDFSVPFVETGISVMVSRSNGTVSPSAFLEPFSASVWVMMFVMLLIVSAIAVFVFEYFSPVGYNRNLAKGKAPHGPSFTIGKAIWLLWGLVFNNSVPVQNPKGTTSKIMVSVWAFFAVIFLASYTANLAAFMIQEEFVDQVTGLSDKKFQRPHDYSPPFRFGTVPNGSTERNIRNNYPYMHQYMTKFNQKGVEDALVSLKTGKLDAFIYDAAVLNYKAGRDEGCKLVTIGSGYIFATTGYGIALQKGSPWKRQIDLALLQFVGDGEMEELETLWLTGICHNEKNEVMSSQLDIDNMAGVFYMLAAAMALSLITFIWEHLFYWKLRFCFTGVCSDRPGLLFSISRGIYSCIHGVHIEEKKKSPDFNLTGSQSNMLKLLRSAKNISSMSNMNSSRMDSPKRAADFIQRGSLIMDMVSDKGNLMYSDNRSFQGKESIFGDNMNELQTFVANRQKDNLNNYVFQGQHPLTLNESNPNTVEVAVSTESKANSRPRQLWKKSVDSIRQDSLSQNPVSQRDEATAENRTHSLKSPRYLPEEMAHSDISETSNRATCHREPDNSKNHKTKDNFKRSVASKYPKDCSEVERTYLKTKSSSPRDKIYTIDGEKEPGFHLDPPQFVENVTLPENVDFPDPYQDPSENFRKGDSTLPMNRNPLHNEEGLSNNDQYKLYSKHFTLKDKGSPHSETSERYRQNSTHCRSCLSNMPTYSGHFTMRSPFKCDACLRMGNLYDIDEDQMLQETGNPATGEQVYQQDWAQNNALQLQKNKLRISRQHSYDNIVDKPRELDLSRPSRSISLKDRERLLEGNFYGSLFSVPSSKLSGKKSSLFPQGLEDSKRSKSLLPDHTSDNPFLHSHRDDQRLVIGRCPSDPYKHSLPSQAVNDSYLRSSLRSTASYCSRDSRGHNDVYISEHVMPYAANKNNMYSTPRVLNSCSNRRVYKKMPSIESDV
Put plainly: Inhibition of NMDA evoked cytosolic calcium elevation in HEK 293 cells expressing recombinant NR1-3/NR2A. Particulars: 10 μM, NR1-3/NR2A subunit expressing cells. Format: cell-based. As to the method: (2003)]. […] Compounds were tested for their inhibitory action on NMDA evoked cytosolic calcium elevations in fluorescent calcium measurements. Studies were performed 48-72 h after addition of the inducing agent. Ketamine (500 μM) was also present during the induction in order to prevent cytotoxicity.
as §1
In the case of `O=C(CCN1CCC(Cc2ccc(F)cc2)CC1)c1ccc2[nH]c(=O)oc2c1` [EMD 95885, reference compound], the “NR1-3/NR2A % inhibition at 10 μM” value amounted to 0.1%.

Staying with this data set, now noted: HEK293; 10 μM, NR1-3/NR2A subunit expressing cells.
Consider `CC(C(O)c1ccc(O)cc1)N1CCC(Cc2ccccc2)CC1` (stereo not drawn) [Erythro-ifenprodil, erythro-2-(4-benzylpiperidino)-1-(4-hydroxyphenyl)-1-propanol], for which the inhibition (usually the relative decrease from the control value, in per cent) at 10 µM was -2.7%.
The same measure, in the same setting: next, `C[C@@H]([C@@H](O)c1ccc(O)cc1)N1CCC(O)(c2ccccc2)CC1` [CP 101,606, (1S,2S)-1-(4-hydroxyphenyl)-2-(4-hydroxy-4-phenylpiperidine-1-yl)-1-propanol]: 2.5%.
Same read-out and setting: for `CC(CN1CCC(Cc2ccccc2)CC1)C(O)c1ccc(O)cc1` (stereo not drawn) [Ro 25.6981, R-(R*,S*)-1-(4-hydroxyphenyl)-2-methyl-3-[4-(phenylmethyl)piperidin-1-yl]-1-propanol, reference compound] the value was 1%.

Staying with this data set, now noted: HEK293; 15 μM, NR1-3/NR2A subunit expressing cells.
In the case of `COc1cccc(OC)c1CNC(=N)c1cc2ccccc2[nH]1` [Compound 36], the inhibition at 15 µM was determined as 32.1%.
Turning to `COc1ccc2[nH]c(C(=N)NCc3c(OC)cccc3OC)cc2c1` [Compound 147], the inhibition at 15 µM turned out to be 21.7%.
Same read-out and setting: for `COc1ccc2[nH]c(C(=N)NCc3cccnc3)cc2c1` [Compound 134] the value was 6.1%.

System in a further data set: not given
Test: not given
Particulars: cited from earlier work.
For `C[C@@H]([C@@H](O)c1ccc(O)cc1)N1CCC(O)(c2ccccc2)CC1` [CP 101,606, (1S,2S)-1-(4-hydroxyphenyl)-2-(4-hydroxy-4-phenylpiperidine-1-yl)-1-propanol], the “effect on neuropathic pain in clinical trial” value was “reduced neuropathic pain”.

Staying with this data set, now noted: no psychotomimetic effects, hallucinations, dysphoria; cited from earlier work.
As for `C[C@@H]([C@@H](O)c1ccc(O)cc1)N1CCC(O)(c2ccccc2)CC1` [CP 101,606, (1S,2S)-1-(4-hydroxyphenyl)-2-(4-hydroxy-4-phenylpiperidine-1-yl)-1-propanol], the “tolerability in clinical trial” value was “well tolerated”.

Values taken from patent publication US20090048303A1, “Indole-2-carboxamidine derivatives as nmda receptor antago” (priority 2004, published 2009).
